Structures can show the parent of a compound that is named as a salt.
Key:
[1] = Cytotoxicity against neuroblastoma Neuro 2A cells (nonspecific esterase activity assay); format: cell-based, mouse; details: mouse neuroblastoma Neuro 2A cells
Procedure: (§1) The museum tetraploid strain of murine ascite Ehrlich carcinoma cells from the All-Russian Oncology Center (Moscow, Russia) was used. The cells were separated from the ascites, which were collected on day 7 after inoculation in mouse CD-1 line. The cells were washed of the ascites triply and resuspended in RPMI-1640 medium containing 8 μg/mL gentamicin (BioloT, St-Petersburg, Russia). Neuroblastoma Neuro 2A cells were cultured in DMEM medium containing 10% fetal bovine serum (FBS), (BioloT, St-Petersburg, Russia) and normal epithelial JB-6 cells were cultured in DMEM medium containing 5% fetal bovine serum (FBS), (BioloT, St-Petersburg, Russia) and 1% penicillin/streptomycine (Invitrogen). The HT-29 (ATCC # HTB-38) human colon cancer cell line was grown in monolayer in McCoy’s 5A medium supplemented with 10% (v/v) heat-inactivated FBS, 2 mM L-glutamine, and 1% penicillin-streptomycin in a humidified atmosphere containing 5% CO2. Cells were maintained in a sterile environment and kept in an incubator at 5% CO2 and 37 °C to promote growth. HT-29 cells were sub-cultured every 3–4 days by rinsing with phosphate buffered saline (PBS), adding trypsin to detach the cells from the tissue culture flask, and transferring 10%–20% of the harvested cells to a new flask containing fresh growth media.
(§2) Cytotoxic activity against ascite form of mouse Ehrlich carcinoma cells was investigated by nonspecific esterase activity assay. In total, 10µL of the test substance solution and 100 μL of the cell suspension were placed into each well of a 96-well microplate. The plate was incubated in a CO2 incubator at 37 °C for 1 or 24 h. A stock solution of the probe fluorescein diacetate (FDA; Sigma, St. Louis, MO, USA) in DMSO (1 mg/mL) was prepared. After incubation of the cells with test compounds, 10 μL of FDA solution (50 μg/mL) was added to each well and the plate was incubated at 37 °C for 15 min. Cells were washed with PBS, and fluorescence was measured with a Fluoroskan Ascent plate reader (Thermo Labsystems, Helsinky, Finland) at λex = 485 nm and λem = 518 nm. All experiments were repeated in triplicate. Cytotoxic activity was expressed as the percent of cell viability. Nonspecific esterase activity assay has been used for determination of cytotoxicity against neuroblastoma Neuro 2A and normal epithelial JB-6 cells.

[2] = test system: human colorectal adenocarcinoma HT-29 cells; test: Soft agar assay, colony formation and growth of HT-29 cells; format: cell-based; details: Homo sapiens, 336 h, 0–10 μM, 14 days, read-out: Soft Agar Assay ICCF50 (inhibition of colony formation)
Procedure: as §1
The HT-29 cells (8.0 × 10^3) were seeded in 6-well plate and treated with the tested compounds at concentrations range 0–10 μM in 1 mL of 0.3% Basal Medium Eagle (BME) agar containing 10% FBS, 2mM L-glutamine, and 25 μg/mL gentamicin. The cultures were maintained at 37 °C in a 5% CO2 incubator for 14 days, and the cell’s colonies were scored using a microscope “Motic AE 20” (Scientific Instrument Company, Campbell, CA, USA) and the Motic Image Plus version 2.0 (Scientific Instrument Company, Campbell, CA, USA) computer program.

[3] = Hemolytic activity against mouse erythrocytes; format: cell-based; details: CD-1, mouse erythrocyte suspension, pH 7.4, 24 h at 37 °C, read-out: Cytotoxicity EC50, Erhythrocytes (hemolytic activity)
Procedure: (§3) Blood was taken from CD-1 mice (18–20 g). The mice were anesthetized with diethyl ether, their chests were rapidly opened, and blood was collected in cold (4 °C) 10 mM phosphate-buffered saline, pH 7.4 (PBS) without anticoagulant. Erythrocytes were washed 3 times in PBS using at least 10 vol. of washing solution by centrifugation (2000 rpm) for 5 min. Erythrocytes were used at a concentration that provided an optical density of 1.0 at 700 nm for a non-hemolyzed sample. Then, 20 μL of a water solution of test substance with a fixed concentration was added to a well of a 96-well plate containing 180 μL of the erythrocyte suspension. Erythrocyte suspension was incubated with substances for 24 h at 37 °C. After that, the optical density of the obtained solutions was measured and ED50 for hemolytic activity of each compound was calculated.

[4] = test system: human colorectal adenocarcinoma HT-29 cells; test: MTS assay, cell viability of HT-29 cells; format: cell-based; details: Homo sapiens, 0–20 μM, 24 h
Procedure: as §1
The HT-29 cells (1.0 × 10^4/well) were seeded in 96-well plates for 24 h at 37 °C in 5% CO2 incubator. The cells were treated with the tested substances at concentrations range from 0 to 20 μM for an additional 24 h. Subsequently, cells were incubated with 15 μL MTS reagent for 3 h and the absorbance in each well was measured at 490/630 nm using microplate reader “Power Wave XS” (Bio Tek, Winooski, VT, USA). All the experiments were repeated three times, and the mean absorbance values were calculated. The results are expressed as the percentage of inhibition that produced a reduction in absorbance by compound’s treatment compared to the non-treated cells (control).

[5] = Cytotoxic activity against ascite form of mouse Ehrlich carcinoma cells (nonspecific esterase / MTT assay); format: cell-based; details: ascite form of mouse Ehrlich carcinoma cells; read-out: Cytotoxicity EC50, Ehrlich carcinoma
Procedure: as §1, §2
The solutions of tested substances in different concentrations (20 µL) and cell suspension (200 µL) were added in wells of 96-well plate and incubated over night at 37 °C and 5% CO2. After incubation, the cells were sedimented by centrifugation, 200 µL of medium from each well were collected, and 100 µL of pure medium were added. Then, 10 µL of MTT solution […] (Sigma, St. Louis, MO, USA) were added in each well. The plate was incubated for 4 h, after which 100 µL SDS-HCl were added to each well, and the plate was incubated at 37 °C for 4–18 h. Optical density was measured at 570 nm and 630–690 nm. Cytotoxic activity of the substances was calculated as the concentration that caused 50% metabolic cell activity inhibition (IC50). The MTT assay has been used for determination of cytotoxic activity against Ehrlich carcinoma cells.

[6] = Cytotoxicity against normal epithelial JB-6 cells (nonspecific esterase activity assay); format: cell-based, mouse; details: mouse, normal epithelial JB-6 cells
Procedure: as §1, §2

[7] = test system: mouse neuroblastoma Neuro 2A cells; test: Cytotoxicity against neuroblastoma Neuro 2A cells (nonspecific esterase activity assay); format: cell-based; details: Neuro 2A cells
Procedure: as §1, §2

[8] = test system: normal epithelial JB-6 cells; test: Cytotoxicity against normal epithelial JB-6 cells (nonspecific esterase activity assay); format: cell-based, mouse; details: JB-6 cells
Procedure: as §1, §2

mouse erythrocytes = test: Hemolytic activity against mouse erythrocytes; format: cell-based
Procedure: as §3

SMILES	EC50 [1]	IC50 [2]	EC50 at 24 h [3]	IC50 [4]	EC50 [5]	EC50 [6]	activity against Neuro 2A cells (in words) [7]	cytotoxicity against normal JB-6 cells (in words) [8]	hemolytic activity (in words) (mouse erythrocytes)
C=C(C)CCC[C@]1(C)OC(=O)[C@]23CC=C4[C@@H](CC[C@H]5C(C)(C)[C@@H](O[C@@H]6OC[C@@H](O)[C@H](O)[C@H]6O[C@@H]6O[C@H](C)[C@@H](O[C@@H]7O[C@H](COS(=O)(=O)O)[C@@H](O)[C@H](O[C@@H]8O[C@H](CO)[C@@H](O)[C@H](OC)[C@H]8O)[C@H]7O)[C@H](O)[C@H]6O)CC[C@]45C)[C@]2(C)CC(=O)[C@@H]31 [Psolusoside E (2), 3β-O-[3-O-methyl-β-D-glucopyranosyl-(1→3)-6-O-sodium-sulfate-β-D-glucopyranosyl-(1→4)-β-D-quinovopyranosyl-(1→2)-β-D-xylopyranosyl]-16-ketoholosta-9(11),25-diene]	3.96 µM	0.1 ± 0.03 µM	0.23 µM	> 20 µM	55.8 µM				
C=C(C)CCC[C@]1(C)OC(=O)[C@]23CC=C4[C@@H](CC[C@H]5C(C)(C)[C@@H](O[C@@H]6OC[C@@H](O)[C@H](O)[C@H]6O[C@@H]6O[C@H](C)[C@@H](O[C@@H]7O[C@H](CO)[C@@H](O)[C@H](O[C@@H]8O[C@H](COS(=O)(=O)O)[C@@H](O)[C@H](OC)[C@H]8O)[C@H]7O)[C@H](O)[C@H]6O)CC[C@]45C)[C@]2(C)CC(=O)[C@@H]31 [Psolusoside F (3), 3β-O-[6-O-sodium-sulfate-3-O-methyl-β-D-glucopyranosyl-(1→3)-β-D-glucopyranosyl-(1→4)-β-D-quinovopyranosyl-(1→2)-β-D-xylopyranosyl]-16-ketoholosta-9(11),25-diene]	10.8 µM	0.5 ± 0.03 µM	2.8 µM	> 20 µM	96.2 µM	23.8 µM			
C=C(C)CCC[C@]1(C)OC(=O)[C@]23CC=C4[C@@H](CC[C@H]5C(C)(C)[C@@H](O[C@@H]6OC[C@@H](O)[C@H](O)[C@H]6O[C@@H]6O[C@H](CO)[C@@H](O[C@@H]7O[C@H](COS(=O)(=O)O)[C@@H](O)[C@H](O[C@@H]8O[C@H](COS(=O)(=O)O)[C@@H](O)[C@H](OC)[C@H]8O)[C@H]7O)[C@H](O)[C@H]6O)CC[C@]45C)[C@]2(C)CC(=O)[C@@H]31 [Psolusoside G (4), 3β-O-[6-O-sodium-sulfate-3-O-methyl-β-D-glucopyranosyl-(1→3)-6-O-sodium-sulfate-β-D-glucopyranosyl-(1→4)-β-D-glucopyranosyl-(1→2)-β-D-xylopyranosyl]-16-ketoholosta-9(11),25-diene]	7.3 µM		4.2 µM		98.3 µM	> 100 µM	high activity	not cytotoxic	
C=C(C)CCC[C@]1(C)OC(=O)[C@]23CC[C@@H]4C(=CC[C@H]5C(C)(C)[C@@H](O[C@@H]6OC[C@@H](O)[C@H](O)[C@H]6O[C@@H]6O[C@H](CO)[C@@H](O[C@@H]7O[C@H](COS(=O)(=O)O)[C@@H](O)[C@H](O)[C@H]7O)[C@H](O)[C@H]6O)CC[C@]45C)[C@]2(C)CC[C@@H]31 [Psolusoside H1 (6), 3β-O-[6-O-sodium-sulfate-β-D-glucopyranosyl-(1→4)-β-D-glucopyranosyl-(1→2)-β-D-xylopyranosyl]-holosta-7,25-diene]	10.7 µM	9 ± 0.3 µM	2.7 µM	> 20 µM	92.5 µM	32.3 µM			
C=C(C)CCC[C@]1(C)OC(=O)[C@]23CC[C@@H]4C(=CC[C@H]5C(C)(C)[C@@H](O[C@@H]6OC[C@@H](O)[C@H](O)[C@H]6O[C@@H]6O[C@H](CO)[C@@H](O[C@@H]7O[C@H](COS(=O)(=O)O)[C@@H](O)[C@H](O)[C@H]7O)[C@H](O)[C@H]6O)CC[C@]45C)[C@]2(C)CC(=O)[C@@H]31 [Psolusoside H (5), 3β-O-[6-O-sodium-sulfate-β-D-glucopyranosyl-(1→4)-β-D-glucopyranosyl-(1→2)-β-D-xylopyranosyl]-16-ketoholosta-7,25-diene]	47.5 µM	> 10 µM	2.5 µM	> 20 µM	> 100 µM	43.2 µM			
C=C(C)CCC[C@]1(C)OC(=O)[C@]23CC[C@@H]4C(=CC[C@H]5C(C)(C)[C@@H](O[C@@H]6OC[C@@H](O[C@@H]7O[C@H](COS(=O)(=O)O)[C@@H](O)[C@H](O)[C@H]7O)[C@H](O)[C@H]6O[C@@H]6OC[C@@H](O[C@@H]7O[C@H](COS(=O)(=O)O)[C@@H](O)[C@H](O)[C@H]7O)[C@H](O)[C@H]6O)CC[C@]45C)[C@]2(C)C[C@H](OC(C)=O)[C@@H]31 [Psolusoside I (7), 3β-O-{6-O-sodium sulfate-β-D-glucopyranosyl-(1→4)-β-D-xylopyranosyl-(1→2)-[6-O-sodium sulfate-β-D-glucopyranosyl-(1→4)]-β-D-xylopyranosyl}-16β-acetoxyholosta-7,25-diene]	26.8 µM	10 ± 0.4 µM	18.3 µM	> 20 µM	87.4 µM	37.2 µM			moderate hemolytic activity
C=C(C)CCC[C@](C)(OC(C)=O)[C@H]1[C@@H]2C[C@@]3(C)C4=CC[C@H]5C(C)(C)[C@@H](O[C@@H]6OC[C@@H](O[C@@H]7O[C@H](CO)[C@@H](O)[C@H](O)[C@H]7OS(=O)(=O)O)[C@H](O)[C@H]6O[C@@H]6O[C@H](CO)[C@@H](O[C@@H]7O[C@H](COS(=O)(=O)O)[C@@H](O)[C@H](O)[C@H]7O)[C@H](O)[C@H]6O)CC[C@]5(C)[C@@H]4CC[C@]13C(=O)O2 [psolusoside B (1), 3β-O-{6-O-sodium sulfate-β-D-glucopyranosyl-(1→4)-β-D-glucopyranosyl-(1→2)-[2-O-sodium sulfate-β-D-glucopyranosyl-(1→4)]-β-D-xylopyranosyl}-9βH,20(S)-acetoxylanosta-7,25-diene-18(16)-lactone]		> 10 µM		> 20 µM					

— PMC6627558, “Structures and Bioactivities of Six New Triterpene Glycosides, Psolusosides E, F, G, H, H1, and I and the Corrected Structure of Psolusoside B from the Sea Cucumber Psolus fabricii” (Marine Drugs, 2019)
